Experiments:
293 751 SWE cells = assay: Cytotoxicity (MTT) in 293 751 SWE cells; assay type: cell-based, human; conditions: concentration not given
How it was run: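 Used HEK293 cells stably expressing APP751 carrying the Swedish double mutation (K651N/M652L), plated at 1.5-2.5×10^4 cells/well in DMEM + 10% FBS. MTT was added to a final 1 mg/mL for 1 h at 37 °C, then lysed in SDS/DMF (pH 4.7) overnight. Viability was read as OD562 − OD650.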

5-lipoxygenase = biological target: T1, 5-lipoxygenase (Rattus norvegicus, UniProt P12527); assay: 5-Lipoxygenase inhibition (5-HETE radioimmunoassay); assay type: biochemical; conditions: 6 μM compound; crude enzyme from RBL-1 cells; read-out: Percent Inhibition (5-lipoxygenase)
T1 construct: crude 5-lipoxygenase enzyme from rat basophilic leukemia cells (RBL-1); endogenous in cells; host or cells: RBL-1 (rat basophilic leukemia cells), crude enzyme
T1 sequence (P12527 1-673): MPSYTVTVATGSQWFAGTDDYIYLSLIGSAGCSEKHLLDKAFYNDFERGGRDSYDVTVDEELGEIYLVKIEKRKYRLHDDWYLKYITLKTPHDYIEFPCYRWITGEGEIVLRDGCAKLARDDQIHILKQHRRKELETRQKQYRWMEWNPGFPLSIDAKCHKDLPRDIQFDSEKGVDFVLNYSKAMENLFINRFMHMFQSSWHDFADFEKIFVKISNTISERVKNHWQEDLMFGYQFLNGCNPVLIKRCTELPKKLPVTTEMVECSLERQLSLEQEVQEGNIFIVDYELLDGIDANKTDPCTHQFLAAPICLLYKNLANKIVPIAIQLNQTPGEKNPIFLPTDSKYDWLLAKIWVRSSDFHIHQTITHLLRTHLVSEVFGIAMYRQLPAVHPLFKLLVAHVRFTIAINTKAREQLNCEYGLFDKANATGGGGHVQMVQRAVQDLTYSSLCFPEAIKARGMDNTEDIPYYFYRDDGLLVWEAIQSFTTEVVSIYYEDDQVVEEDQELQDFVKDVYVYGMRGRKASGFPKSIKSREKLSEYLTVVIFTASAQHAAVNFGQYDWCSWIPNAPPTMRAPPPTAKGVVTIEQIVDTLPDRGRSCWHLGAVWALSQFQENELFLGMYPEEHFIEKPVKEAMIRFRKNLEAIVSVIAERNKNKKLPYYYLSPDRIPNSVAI
Experimental: 5-Lipoxygenase catalyzes the oxidative metabolism of arachidonic acid to 5-hydroperoxyeicosatetraenoid acid ([…]), the initial reaction leading to the formation of the leukotrienes^18. Accordingly, compounds inhibiting 5-lipoxygenase activity are art recognized to have anti-inflammatory properties.
The ability of test compounds to inhibit 5-lipoxygenase activity was determined in assays^19 using crude 5-lipoxygenase enzyme from rat basophilic leukemia cells (RBL-1). Test compounds are pre-incubated with the enzyme for 5 minutes at room temperature and the reaction is initiated by addition of substrate (arachidonic acid). Following an 8 minute incubation at room temperature, the reaction is terminated by addition of citric acid, and levels of 5-HETE determined by 5-HETE radioimmunoassay.

inhibition at 6 µM (5-lipoxygenase): 60%
Structure (SMILES): COc1ccc2c(c1)c(CC1=NN(c3cccc(C(F)(F)F)c3)C(=O)C1)c(C)n2C(=O)c1ccc(Cl)cc1 [Example 25, 3-[1-(4-chlorobenzoyl)-5-methoxy-2-methyl-3-indolylmethyl]-1-(3-trifluoromethylphenyl)-5-pyrazolone]
cytotoxic effect on the 293 751 SWE cells (293 751 SWE cells): did not have a significant cytotoxic effect

Reference: patent US5484940A, “Substituted 3-indolyl-5-pyrazolone compounds” (priority 1994, dated 1996)
